{"source": "patent US20070128217A1", "about": "(priority 2003, published 2007)", "key": {"[1]": {"test_system": "control sera (pooled serum of ten healthy LUMC hospital workers; commercial negative donor pooled serum from the Dutch bloodbank)", "assay_type": "binding, human", "design": "Binding of Control serum LUMC to linear peptides / Binding of Control serum Blood-bank to linear peptides / Binding of Control serum LUMC to looped peptides / Binding of Control Serum Blood-Bank to Looped peptides / Binding of Control serum LUMC to linear peptides of the protein M of SARS-CoV Urbani / Binding of Control serum Blood-bank to linear peptides of the protein M of SARS-CoV Urbani / Binding of Control serum LUMC to looped peptides of the protein M of SARS-CoV Urbani / Binding of Control Serum Blood-Bank to Looped peptides of the protein M of SARS-CoV Urbani: unit not given here"}, "[2]": {"test_system": "rabbit serum obtained by immunizing a rabbit with the SARS-CoV strain Frankfurt 1", "assay_type": "binding", "design": "Binding of a rabbit serum to linear peptides / Binding of a rabbit serum to looped peptides / Rabbit serum linear peptides / Rabbit serum looped peptides / Binding of a rabbit serum to linear peptides of protein N of SARS-CoV Urbani (Rabbit serum linear peptides) / Binding of a rabbit serum to looped/cyclic peptides of protein N of SARS-CoV Urbani (Rabbit serum looped peptides): unit not given here"}, "[3]": {"test_system": "antibodies in sera from SARS patients (sera 1a, 1b, 2, 6, 37, 62, London, SARS-yellow, SARS-green)", "assay_type": "binding, human", "design": "Binding of serum 6 to linear peptides of protein X1 of SARS-CoV Urbani / Binding of serum 37 to linear peptides of protein X1 of SARS-CoV Urbani / Binding of serum 6 to looped/cyclic peptide (PEPSCAN-ELISA) / Binding of serum 37 to looped/cyclic peptide (PEPSCAN-ELISA) / Binding of serum 37 to looped/cyclic peptides of protein X1 of SARS-CoV Urbani / Binding of serum 6 to linear peptides of protein X2 / Binding of serum 37 to linear peptides of protein X2 / Binding of serum 37 to looped/cyclic peptides of protein X2 of SARS-CoV Urbani / Binding of serum 6 to linear peptides of protein M of SARS-CoV Urbani / Binding of serum 37 to linear peptides of protein M of SARS-CoV Urbani / Binding of serum 6 to looped/cyclic peptides of protein M of SARS-CoV Urbani / Binding of serum 37 to looped/cyclic peptides of protein M of SARS-CoV Urbani / Binding of serum 6 to linear peptides of protein X3 of SARS-CoV Urbani / Binding of serum 37 to linear peptides of protein X3 of SARS-CoV Urbani / Binding of serum 37 to looped/cyclic peptides of protein X3 of SARS-CoV Urbani / Binding of serum 6 to linear peptides of protein X4 of SARS-CoV Urbani / Binding of serum 37 to linear peptides of protein X4 of SARS-CoV Urbani / Binding of serum 37 to looped/cyclic peptides of protein X4 of SARS-CoV Urbani / Binding of serum 6 to linear peptides of protein X5 of SARS-CoV Urbani / Binding of serum 37 to linear peptides of protein X5 of SARS-CoV Urbani / Binding of serum 37 to looped/cyclic peptides of protein X5 of SARS-CoV Urbani / Binding of serum 6 to linear peptides of protein N of SARS-CoV Urbani / Binding of serum 37 to linear peptides of protein N of SARS-CoV Urbani / Binding of serum 6 to linear peptide (PEPSCAN-ELISA) / Binding of serum 1a to looped/cyclic peptides of protein N of SARS-CoV Urbani / Binding of serum 1b to looped/cyclic peptides of protein N of SARS-CoV Urbani / Binding of serum 2 to looped/cyclic peptides of protein N of SARS-CoV Urbani / Binding of serum 6 to looped/cyclic peptides of protein N of SARS-CoV Urbani / Binding of serum 37 to looped/cyclic peptides of protein N of SARS-CoV Urbani / Binding of serum 62 to looped/cyclic peptides of protein N of SARS-CoV Urbani / Binding of serum London to looped/cyclic peptides of protein N of SARS-CoV Urbani / Binding of serum SARS-green to looped/cyclic peptides of protein N of SARS-CoV Urbani: unit not given here"}}}
{"sequence": "RVGTDSGFAAYNRYR", "values": [{"measurement": "Binding of Control Serum Blood-Bank to Looped peptides of the protein M of SARS-CoV Urbani", "setting": "[1]", "result": 0.5}, {"measurement": "Binding of Control serum Blood-bank to linear peptides of the protein M of SARS-CoV Urbani", "setting": "[1]", "result": 0.7}, {"measurement": "Binding of Control serum LUMC to linear peptides of the protein M of SARS-CoV Urbani", "setting": "[1]", "result": 0.4}, {"measurement": "Binding of Control serum LUMC to looped peptides of the protein M of SARS-CoV Urbani", "setting": "[1]", "result": 0.6}, {"measurement": "Rabbit serum linear peptides", "setting": "[2]", "result": 0.0}, {"measurement": "Rabbit serum looped peptides", "setting": "[2]", "result": 0.3}, {"measurement": "Binding of serum 1a to linear peptides of protein M of SARS-CoV Urbani", "setting": "[3]", "result": 0.7}, {"measurement": "Binding of serum 1a to looped/cyclic peptides of protein M of SARS-CoV Urbani", "setting": "[3]", "result": 0.8}, {"measurement": "Binding of serum 1b to linear peptides of protein M of SARS-CoV Urbani", "setting": "[3]", "result": 0.1}, {"measurement": "Binding of serum 1b to looped/cyclic peptides of protein M of SARS-CoV Urbani", "setting": "[3]", "result": 0.5}, {"measurement": "Binding of serum 2 to linear peptides of protein M of SARS-CoV Urbani", "setting": "[3]", "result": 0.5}, {"measurement": "Binding of serum 2 to looped/cyclic peptides of protein M of SARS-CoV Urbani", "setting": "[3]", "result": 0.6}, {"measurement": "Binding of serum 6 to linear peptides of protein M of SARS-CoV Urbani", "setting": "[3]", "result": 0.5}, {"measurement": "Binding of serum 6 to looped/cyclic peptides of protein M of SARS-CoV Urbani", "setting": "[3]", "result": 1.4}, {"measurement": "Binding of serum 37 to linear peptides of protein M of SARS-CoV Urbani", "setting": "[3]", "result": 0.6}, {"measurement": "Binding of serum 37 to looped/cyclic peptides of protein M of SARS-CoV Urbani", "setting": "[3]", "result": 0.7}, {"measurement": "Binding of serum 62 to linear peptides of protein M of SARS-CoV Urbani", "setting": "[3]", "result": 0.2}, {"measurement": "Binding of serum 62 to looped/cyclic peptides of protein M of SARS-CoV Urbani", "setting": "[3]", "result": 0.6}, {"measurement": "Binding of serum London to linear peptides of protein M of SARS-CoV Urbani", "setting": "[3]", "result": 0.3}, {"measurement": "Binding of serum London to looped/cyclic peptides of protein M of SARS-CoV Urbani", "setting": "[3]", "result": 0.4}, {"measurement": "Binding of serum SARS-green to linear peptides of protein M of SARS-CoV Urbani", "setting": "[3]", "result": 0.5}, {"measurement": "Binding of serum SARS-green to looped/cyclic peptides of protein M of SARS-CoV Urbani", "setting": "[3]", "result": 0.3}, {"measurement": "Binding of serum SARS-yellow to linear peptides of protein M of SARS-CoV Urbani", "setting": "[3]", "result": 0.3}, {"measurement": "Binding of serum SARS-yellow to looped/cyclic peptides of protein M of SARS-CoV Urbani", "setting": "[3]", "result": 0.5}]}
{"sequence": "RWQLALYKGFQFICN", "values": [{"measurement": "Binding of Control Serum Blood-Bank to Looped peptides", "setting": "[1]", "result": 0.6}, {"measurement": "Binding of Control serum Blood-bank to linear peptides", "setting": "[1]", "result": 0.6}, {"measurement": "Binding of Control serum LUMC to linear peptides", "setting": "[1]", "result": 0.4}, {"measurement": "Binding of Control serum LUMC to looped peptides", "setting": "[1]", "result": 0.6}, {"measurement": "Binding of a rabbit serum to linear peptides", "setting": "[2]", "result": 0.3}, {"measurement": "Binding of a rabbit serum to looped peptides", "setting": "[2]", "result": 0.9}, {"measurement": "Binding of serum 1a to linear peptides of protein X1 of SARS-CoV Urbani", "setting": "[3]", "result": 0.7}, {"measurement": "Binding of serum 1a to looped/cyclic peptide (PEPSCAN-ELISA)", "setting": "[3]", "result": 0.6}, {"measurement": "Binding of serum 1b to linear peptides of protein X1 of SARS-CoV Urbani", "setting": "[3]", "result": 0.5}, {"measurement": "Binding of serum 1b to looped/cyclic peptide (PEPSCAN-ELISA)", "setting": "[3]", "result": 0.4}, {"measurement": "Binding of serum 2 to linear peptides of protein X1 of SARS-CoV Urbani", "setting": "[3]", "result": 0.5}, {"measurement": "Binding of serum 2 to looped/cyclic peptide (PEPSCAN-ELISA)", "setting": "[3]", "result": 0.5}, {"measurement": "Binding of serum 6 to linear peptides of protein X1 of SARS-CoV Urbani", "setting": "[3]", "result": 0.4}, {"measurement": "Binding of serum 6 to looped/cyclic peptide (PEPSCAN-ELISA)", "setting": "[3]", "result": 0.9}, {"measurement": "Binding of serum 37 to linear peptides of protein X1 of SARS-CoV Urbani", "setting": "[3]", "result": 0.6}, {"measurement": "Binding of serum 37 to looped/cyclic peptide (PEPSCAN-ELISA)", "setting": "[3]", "result": 0.6}, {"measurement": "Binding of serum 62 to linear peptides of protein X1 of SARS-CoV Urbani", "setting": "[3]", "result": 0.5}, {"measurement": "Binding of serum 62 to looped/cyclic peptide (PEPSCAN-ELISA)", "setting": "[3]", "result": 0.6}, {"measurement": "Binding of serum London to linear peptides of protein X1 of SARS-CoV Urbani", "setting": "[3]", "result": 0.3}, {"measurement": "Binding of serum London to looped/cyclic peptide (PEPSCAN-ELISA)", "setting": "[3]", "result": 1.4}, {"measurement": "Binding of serum SARS-green to linear peptides of protein X1 of SARS-CoV Urbani", "setting": "[3]", "result": 0.3}, {"measurement": "Binding of serum SARS-green to looped/cyclic peptide (PEPSCAN-ELISA)", "setting": "[3]", "result": 0.3}, {"measurement": "Binding of serum SARS-yellow to linear peptides of protein X1 of SARS-CoV Urbani", "setting": "[3]", "result": 0.2}, {"measurement": "Binding of serum SARS-yellow to looped/cyclic peptide (PEPSCAN-ELISA)", "setting": "[3]", "result": 0.6}]}
{"sequence": "RYNTRGNTYSTAWLC", "values": [{"measurement": "Binding of Control Serum Blood-Bank to Looped peptides", "setting": "[1]", "result": 0.0}, {"measurement": "Binding of Control serum Blood-bank to linear peptides", "setting": "[1]", "result": 0.7}, {"measurement": "Binding of Control serum LUMC to linear peptides", "setting": "[1]", "result": 0.3}, {"measurement": "Binding of Control serum LUMC to looped peptides", "setting": "[1]", "result": 0.1}, {"measurement": "Rabbit serum linear peptides", "setting": "[2]", "result": 0.7}, {"measurement": "Rabbit serum looped peptides", "setting": "[2]", "result": 0.0}, {"measurement": "Binding of serum 1a to linear peptides of protein X5 of SARS-CoV Urbani", "setting": "[3]", "result": 0.8}, {"measurement": "Binding of serum 1a to looped/cyclic peptides of protein X5 of SARS-CoV Urbani", "setting": "[3]", "result": 0.5}, {"measurement": "Binding of serum 1b to linear peptides of protein X5 of SARS-CoV Urbani", "setting": "[3]", "result": 0.4}, {"measurement": "Binding of serum 1b to looped/cyclic peptides of protein X5 of SARS-CoV Urbani", "setting": "[3]", "result": 0.0}, {"measurement": "Binding of serum 2 to linear peptides of protein X5 of SARS-CoV Urbani", "setting": "[3]", "result": 0.5}, {"measurement": "Binding of serum 2 to looped/cyclic peptides of protein X5 of SARS-CoV Urbani", "setting": "[3]", "result": 0.3}, {"measurement": "Binding of serum 6 to linear peptides of protein X5 of SARS-CoV Urbani", "setting": "[3]", "result": 0.9}, {"measurement": "Binding of serum 6 to looped/cyclic peptides of protein X5 of SARS-CoV Urbani", "setting": "[3]", "result": 0.1}, {"measurement": "Binding of serum 37 to linear peptides of protein X5 of SARS-CoV Urbani", "setting": "[3]", "result": 0.4}, {"measurement": "Binding of serum 37 to looped/cyclic peptides of protein X5 of SARS-CoV Urbani", "setting": "[3]", "result": 0.0}, {"measurement": "Binding of serum 62 to linear peptides of protein X5 of SARS-CoV Urbani", "setting": "[3]", "result": 0.7}, {"measurement": "Binding of serum 62 to looped/cyclic peptides of protein X5 of SARS-CoV Urbani", "setting": "[3]", "result": 0.2}, {"measurement": "Binding of serum London to linear peptides of protein X5 of SARS-CoV Urbani", "setting": "[3]", "result": 1.0}, {"measurement": "Binding of serum London to looped/cyclic peptides of protein X5 of SARS-CoV Urbani", "setting": "[3]", "result": 0.2}, {"measurement": "Binding of serum SARS-green to linear peptides of protein X5 of SARS-CoV Urbani", "setting": "[3]", "result": 0.6}, {"measurement": "Binding of serum SARS-green to looped/cyclic peptides of protein X5 of SARS-CoV Urbani", "setting": "[3]", "result": 0.1}, {"measurement": "Binding of serum SARS-yellow to linear peptides of protein X5 of SARS-CoV Urbani", "setting": "[3]", "result": 0.2}, {"measurement": "Binding of serum SARS-yellow to looped/cyclic peptides of protein X5 of SARS-CoV Urbani", "setting": "[3]", "result": 0.6}]}
